Assay results published in patent EP4722201A1, “3-PHENYLISOXAZOLINE-5-CARBOXAMIDE COMPOUND, AND PREPARATION METHOD THEREFOR, HERBICIDAL COMPOSITION THEREOF AND USE THEREOF” (Jiangsu Flag Chemical Industry Co., Ltd, priority 2023, dated 2024).

Columns and labels:
Type in all cases: in vivo
Eclipta prostrata [1] = experiment: Indoor herbicide activity determination, post-emergence (stem and leaf spray at 2-4 leaf stage); conditions: 504 h, determined 21 days later, read-out: Inhibition rate of fresh weight, Eclipta prostrata; for inhibition at 30 g/ha: 30 g a.i./ha; for inhibition at 60 g/ha: 60 g a.i./ha
How it was run: (§1)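 Potted weeds in sandy nutrient soil (pH 6.1, 1% organic matter) were grown in a constant-temperature illuminated room to the 2-4 leaf stage, then given a stem-and-leaf spray. Plants went back to the culture room once the spray had dried in shade. At 21 days, fresh weight inhibition % was calculated relative to untreated control plants.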

Digitaria sanguinalis [2] = experiment: as above; conditions: 504 h, determined 21 days later, read-out: Inhibition rate of fresh weight, Digitaria sanguinalis; for inhibition at 30 g/ha: 30 g a.i./ha; for inhibition at 60 g/ha: 60 g a.i./ha
How it was run: as §1

Cyperus iria [3] = experiment: as above; conditions: 504 h, determined 21 days later, read-out: Inhibition rate of fresh weight, Cyperus iria; for inhibition at 30 g/ha: 30 g a.i./ha; for inhibition at 60 g/ha: 60 g a.i./ha
How it was run: as §1

Lolium multiflorum = experiment: Indoor herbicide activity determination, Seed Treatment; pre-emergence (soil spray)
How it was run: (§2)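 Pre-emergence soil spray; sandy soil pH 6.1, OM 1%, 7 cm pots; seeds covered, wetted from below, 24 h incubation under light at constant temperature; spray tower, 300 mm height, 390 mL/min nozzle flow; readout = % fresh-weight inhibition vs control at 21 d.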

Leptochloa chinensis = experiment: as above
How it was run: as §2

Aegilops tauschii = experiment: as above; conditions: read-out: Herbicidal activities (inhibition rate) Aegilops tauschii; for inhibition at 60 g/ha: 60 g a.i./ha; for inhibition at 120 g/ha: 120 g a.i./ha
How it was run: as §2

Digitaria sanguinalis [4] = experiment: as above; conditions: read-out: Herbicidal activities (inhibition rate) Digitaria sanguinalis; for inhibition at 60 g/ha: 60 g a.i./ha; for inhibition at 120 g/ha: 120 g a.i./ha
How it was run: as §2

Alopecurus japonicus = experiment: as above
How it was run: as §2

Eleusine indica = experiment: as above
How it was run: as §2

Alopecurus myosuroides = experiment: as above
How it was run: as §2

Cyperus iria [5] = experiment: as above; conditions: read-out: Herbicidal activities (inhibition rate) Cyperus iria; for inhibition at 60 g/ha: 60 g a.i./ha; for inhibition at 120 g/ha: 120 g a.i./ha
How it was run: as §2

Eclipta prostrata [6] = experiment: as above; conditions: read-out: Herbicidal activities (inhibition rate) Eclipta prostrata; for inhibition at 60 g/ha: 60 g a.i./ha; for inhibition at 120 g/ha: 120 g a.i./ha
How it was run: as §2

Row | Compound | inhibition at 30 g/ha (Eclipta prostrata [1]) [%] | inhibition at 30 g/ha (Digitaria sanguinalis [2]) [%] | inhibition at 30 g/ha (Cyperus iria [3]) [%] | inhibition at 60 g/ha (Aegilops tauschii) [%] | inhibition at 60 g/ha (Digitaria sanguinalis [4]) [%] | inhibition at 60 g/ha (Cyperus iria [5]) [%] | inhibition at 60 g/ha (Eclipta prostrata [6]) [%] | also measured
1 | C=C[C@]1(C(=O)N[C@H]2C[C@@H](C(=O)OCC)C2)CC(c2cc(F)cc(F)c2)=NO1 [I-5] | 40 to 60 | 80 to 100 | 80 to 100 | 80 to 100 | 80 to 100 | 60 to 80 |  | Herbicidal activities, Lolium multiflorum (inhibition rate class) (Lolium multiflorum; Dosage 120 g a.i./ha): A (A indicates that the inhibition rate was greater than or equal to 80% to 100%); Herbicidal activities, Leptochloa chinensis (inhibition rate class) (Leptochloa chinensis; Dosage 120 g a.i./ha): A (A indicates that the inhibition rate was greater than or equal to 80% to 100%); Herbicidal activities, Alopecurus japonicus (inhibition rate class) (Alopecurus japonicus; Dosage 120 g a.i./ha): A (A indicates that the inhibition rate was greater than or equal to 80% to 100%); Herbicidal activities, Eleusine indica (inhibition rate class) (Eleusine indica; Dosage 120 g a.i./ha): A (A indicates that the inhibition rate was greater than or equal to 80% to 100%); Herbicidal activities, Alopecurus myosuroides (inhibition rate class) (Alopecurus myosuroides; Dosage 120 g a.i./ha): A (A indicates that the inhibition rate was greater than or equal to 80% to 100%)
2 | COC(=O)[C@H]1CC[C@@H](NC(=O)[C@@]2(C(F)(F)F)CC(c3cc(F)cc(F)c3)=NO2)C1 [CK4, reference compound] | < 20 | 20 to 40 | 20 to 40 | < 20 | < 20 | 40 to 60 | < 20 | 
3 | O=C(N[C@H]1C[C@@H](C(=O)O)C1)C1(C(F)(F)F)CC(c2cc(F)cc(F)c2)=NO1 (mixture of isomers) [I-206] |  |  |  |  |  |  |  | inhibition at 60 g/ha (Eclipta prostrata [1]): 80 to 100%; inhibition at 60 g/ha (Digitaria sanguinalis [2]): 80 to 100%; inhibition at 60 g/ha (Cyperus iria [3]): 80 to 100%; inhibition at 120 g/ha (Eclipta prostrata [6]): 60 to 80%; Herbicidal activities, Lolium multiflorum (inhibition rate class) (Lolium multiflorum; Dosage 240 g a.i./ha): A (A indicates that the inhibition rate was greater than or equal to 80% to 100%); Herbicidal activities, Leptochloa chinensis (inhibition rate class) (Leptochloa chinensis; Dosage 240 g a.i./ha): A (A indicates that the inhibition rate was greater than or equal to 80% to 100%); inhibition at 120 g/ha (Aegilops tauschii): 80 to 100%; inhibition at 120 g/ha (Digitaria sanguinalis [4]): 80 to 100%; Herbicidal activities, Alopecurus japonicus (inhibition rate class) (Alopecurus japonicus; Dosage 240 g a.i./ha): A (A indicates that the inhibition rate was greater than or equal to 80% to 100%); Herbicidal activities, Eleusine indica (inhibition rate class) (Eleusine indica; Dosage 240 g a.i./ha): A (A indicates that the inhibition rate was greater than or equal to 80% to 100%); Herbicidal activities, Alopecurus myosuroides (inhibition rate class) (Alopecurus myosuroides; Dosage 240 g a.i./ha): A (A indicates that the inhibition rate was greater than or equal to 80% to 100%); inhibition at 120 g/ha (Cyperus iria [5]): 80 to 100%
4 | C=C[C@]1(C(=O)N[C@H]2CO[C@@H](C(=O)O)C2)CC(c2cc(F)cc(F)c2)=NO1 [icafolin, reference compound] | < 20 | 40 to 60 | 40 to 60 | 40 to 60 | 20 to 40 | 20 to 40 | < 20 | 
5 | C=CC1(C(=O)NC2COC(C(=O)OC)C2)CC(c2cc(F)cc(F)c2)=NO1 (centres unmarked) [icafolin-methyl, reference compound] | 40 to 60 | 40 to 60 | 40 to 60 | 40 to 60 | 20 to 40 | 20 to 40 | 40 to 60 | 
6 | O=C(O)[C@H]1CC[C@@H](NC(=O)[C@@]2(C(F)(F)F)CC(c3cc(F)cc(F)c3)=NO2)C1 [CK6, reference compound] | < 20 | 20 to 40 | 20 to 40 | < 20 | < 20 | 40 to 60 | < 20 | 
7 | O=C(O)[C@@H]1CC[C@H](NC(=O)[C@@]2(C(F)(F)F)CC(c3cc(F)cc(F)c3)=NO2)C1 [CK5, reference compound] | < 20 | 40 to 60 | 40 to 60 | 20 to 40 | 60 to 80 | 60 to 80 | 40 to 60 | 
8 | COC(=O)[C@H]1C[C@@H](NC(=O)C2(C(F)(F)F)CC(c3cc(F)cc(F)c3)=NO2)C1 (mixture of isomers) [I-208] |  |  |  |  |  |  |  | inhibition at 60 g/ha (Eclipta prostrata [1]): 80 to 100%; inhibition at 60 g/ha (Digitaria sanguinalis [2]): 80 to 100%; inhibition at 60 g/ha (Cyperus iria [3]): 80 to 100%; inhibition at 120 g/ha (Eclipta prostrata [6]): 80 to 100%; Herbicidal activities, Lolium multiflorum (inhibition rate class) (Lolium multiflorum; Dosage 240 g a.i./ha): A (A indicates that the inhibition rate was greater than or equal to 80% to 100%); Herbicidal activities, Leptochloa chinensis (inhibition rate class) (Leptochloa chinensis; Dosage 240 g a.i./ha): A (A indicates that the inhibition rate was greater than or equal to 80% to 100%); inhibition at 120 g/ha (Aegilops tauschii): 80 to 100%; inhibition at 120 g/ha (Digitaria sanguinalis [4]): 80 to 100%; Herbicidal activities, Alopecurus japonicus (inhibition rate class) (Alopecurus japonicus; Dosage 240 g a.i./ha): A (A indicates that the inhibition rate was greater than or equal to 80% to 100%); Herbicidal activities, Eleusine indica (inhibition rate class) (Eleusine indica; Dosage 240 g a.i./ha): A (A indicates that the inhibition rate was greater than or equal to 80% to 100%); Herbicidal activities, Alopecurus myosuroides (inhibition rate class) (Alopecurus myosuroides; Dosage 240 g a.i./ha): A (A indicates that the inhibition rate was greater than or equal to 80% to 100%); inhibition at 120 g/ha (Cyperus iria [5]): 80 to 100%
9 | COC(=O)[C@@H]1CC[C@H](NC(=O)[C@@]2(C(F)(F)F)CC(c3cc(F)cc(F)c3)=NO2)C1 [CK3, reference compound] | < 20 | 40 to 60 | 40 to 60 | 40 to 60 | 60 to 80 | 40 to 60 | 60 to 80 | 
